The source of these data is patent US20090130020A1, “DIAGNOSTIC AGENTS FOR POSITRON EMISSION IMAGING USING F-18 RADIO-LABELED AMINO-ALCOHOLS” (priority 2007, published 2009).

For series [1], the system named is colon cancer cell line HCT-116. The experiment in a line: Uptake of [F-18]-labeled compounds into tumor cells. The series is classed as cell-based. As to conditions: 5×10^6 cells, 0.5 MBq, time point not given. As for the experimental part: (§1) The uptake of [F-18]-labeled compounds was investigated by incubating 5×10^6 cells in 350 μl incubation buffer with 0.5 MBq [F-18]-labeled compound and taking aliquots at the various time points. The aliquots were transferred into oil, centrifuged shortly to separate cells from free compounds. The tubes were frozen, the cell pellet in the tip of the tube was cut off and radioactivity was measured in a gamma counter.

For a further series, the system named is melanoma cell line A375. The series is described as above. Particulars: 5×10^6 cells, 0.5 MBq, time point not given. The series is classed as cell-based. The procedure: as §1
The test system of series [2] is lung cancer cell line A549. The description is as above. The class given is cell-based. Particulars: 5×10^6 cells, 0.5 MBq, time point not given. As for the experimental part: as §1
The test system of series [3] is DU-145 prostate cell line. The description is as above. The class given is cell-based. Particulars: 5×10^6 cells, 0.5 MBq, time point not given. The procedure:
as §1

Another series relates to PC-3 prostate cell line. The series is described as above. The series is classed as cell-based. As to conditions: 5×10^6 cells, 0.5 MBq, time point not given. The procedure:
as §1

Series [4] relates to tumor cells lines A375, PC-3, HCT-116, A549 and DU-145. The experiment in a line: Time dependent uptake of [F-18]-labeled compounds, all cell lines together. The class given is cell-based. The procedure: as §1
FIG. 7: Time dependent uptake of [F-18]-Fluoroethyl-Choline (FE-Ch) into the tumor cells lines A375, PC-3, HCT-116, A549 and DU-145.
FIG. 8: Time dependent uptake of [F-18]-Fluoroethyl-N-Methyl-Ethanolamine into the tumor cells lines A375, PC-3, HCT-116, A549 and DU-145.
FIG. 9: Time dependent uptake of [F-18]-Fluoroethyl-N-Ethyl-Ethanolamine into the tumor cells lines A375, PC-3, HCT-116, A549 and DU-145.
FIG. 10: Time dependent uptake of [F-18]-Fluoropropyl-N-Methyl-Ethanolamine into the tumor cells lines A375, PC-3, HCT-116, A549 and DU-145.

The next series deals with tumor. As to conditions: bio-distribution studies; cited from earlier work.

As to `C[N+](C)(CCO)CC[18F]` [FE-Ch, [F-18]-Fluoroethyl-Choline], the uptake is listed as 4% in series [1]; 4% in the series with melanoma cell line A375; 4% in series [2]; 3% in series [3]; 6.5% in the series on PC-3 prostate cell line. The “maximum value of uptake reached after 60 min” value in series [4] (after 60 min, all cell lines) is 5-10%. Besides, the “course of uptake over time” value in series [4] (over the 60 minutes investigated) is “slowly linear increasing”.
As to [C-14]dimethyl-ethanolamine, the “tumor uptake in bio-distribution” value in the series on tumor was “tumor uptake”.
Turning to `CN(CCO)CC[18F]` [[F-18]-Fluoroethyl-N-Methyl-Ethanolamine, [F-18]2-[(2-Fluoro-ethyl)-methyl-amino]-ethanol], the uptake in series [1] is 29%; in the series on melanoma cell line A375, 22%; in series [2], 17%; in series [3], 20.5%; in the series with PC-3 prostate cell line it was 25.5%. Further, in series [4] (after 30 min, across the cell lines (FIG. 8)), the “uptake after 30 min” value was 17-30%.
“[C-14]ethanolamine [[C-14] derivative of ethanolamine (1)]”: in the series on tumor, the “tumor uptake in bio-distribution” value is listed as “tumor uptake”.
